Where two headings read alike, the source gives them in different places.
Key:
Type in all cases: in vivo
cotton = assay: Field pre-emergence selectivity test; details: Gossypium hirsutum, 1008 h, 6 weeks, read-out: Percent Inhibition; for inhibition at 560 g/ha: 0.56 Kg/Ha; for inhibition at 1120 g/ha: 1.12 Kg/Ha; for inhibition at 2240 g/ha: 2.24 Kg/Ha; for inhibition at 4480 g/ha: 4.48 Kg/Ha
Text: (§1) The seeds were planted in a fine seedbed of silt loam of intermediate moisture. The seeds were planted at a depth of two inches (5.08 cm). First rainfall (0.2"; 0.51 cm) occurred the day following treatment, the second rain (0.25"; […]) two days after treatment; cumulative rainfall 22 days after treatment was 1.8" (4.57 cm). Observations were made 6 weeks after treatment.

peanuts = assay: Field pre-emergence selectivity test; details: 1008 h, 6 weeks, read-out: Percent Inhibition; for inhibition at 560 g/ha: 0.56 Kg/Ha; for inhibition at 1120 g/ha: 1.12 Kg/Ha; for inhibition at 2240 g/ha: 2.24 Kg/Ha; for inhibition at 4480 g/ha: 4.48 Kg/Ha
Text: as §1

pigweed = assay: Field pre-emergence selectivity test; details: Amaranthus retroflexus, 1008 h, 6 weeks, read-out: Percent Inhibition; for inhibition at 560 g/ha: 0.56 Kg/Ha; for inhibition at 1120 g/ha: 1.12 Kg/Ha; for inhibition at 2240 g/ha: 2.24 Kg/Ha; for inhibition at 4480 g/ha: 4.48 Kg/Ha
Description: (§2) The compound of Examples 1 and 2 was also tested in the field to determine its pre-emergence selectivity against foxtail (spp), barnyardgrass, wild proso millet, smartweed, lambsquarters and pigweed in a plurality of crops; the data (representing three replicate runs) are shown in Table VII for both surface application (S.A.) and soil incorporation (PPI, i.e., preplant incorporation) of the herbicide. The seeds were planted in a fine seedbed of silt loam of intermediate moisture. The seeds were planted at a depth of two inches (5.08 cm). First rainfall (0.2"; 0.51 cm) occurred the day following treatment, the second rain (0.25"; […]) two days after treatment; cumulative rainfall 22 days after treatment was 1.8" (4.57 cm). Observations were made 6 weeks after treatment.

wild proso millet = assay: Field pre-emergence selectivity test; details: 1008 h, 6 weeks, read-out: Percent Inhibition; for inhibition at 560 g/ha: 0.56 Kg/Ha; for inhibition at 1120 g/ha: 1.12 Kg/Ha; for inhibition at 2240 g/ha: 2.24 Kg/Ha; for inhibition at 4480 g/ha: 4.48 Kg/Ha
Description: as §2

rape = assay: Field pre-emergence selectivity test; details: 1008 h, 6 weeks, read-out: Percent Inhibition; for inhibition at 560 g/ha: 0.56 Kg/Ha; for inhibition at 1120 g/ha: 1.12 Kg/Ha; for inhibition at 2240 g/ha: 2.24 Kg/Ha; for inhibition at 4480 g/ha: 4.48 Kg/Ha
Description: as §2

Sorghum = assay: Field pre-emergence selectivity test; details: 1008 h, 6 weeks, read-out: Percent Inhibition; for inhibition at 560 g/ha: 0.56 Kg/Ha; for inhibition at 1120 g/ha: 1.12 Kg/Ha; for inhibition at 2240 g/ha: 2.24 Kg/Ha; for inhibition at 4480 g/ha: 4.48 Kg/Ha
Description: as §2

soybeans [1] = assay: Field pre-emergence selectivity test; details: Glycine max, 1008 h, 6 weeks, read-out: Percent Inhibition; for inhibition at 560 g/ha: 0.56 Kg/Ha; for inhibition at 1120 g/ha: 1.12 Kg/Ha; for inhibition at 2240 g/ha: 2.24 Kg/Ha; for inhibition at 4480 g/ha: 4.48 Kg/Ha
Description: as §2

Bush Bean = assay: Field pre-emergence selectivity test; details: 1008 h, 6 weeks, read-out: Percent Inhibition; for inhibition at 560 g/ha: 0.56 Kg/Ha; for inhibition at 1120 g/ha: 1.12 Kg/Ha; for inhibition at 2240 g/ha: 2.24 Kg/Ha; for inhibition at 4480 g/ha: 4.48 Kg/Ha
Description: as §2

soybeans [2] = assay: Greenhouse pre-emergence GR15/GR85 selectivity test; details: for GR15 Rate: Table XIV
In short: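 Active ingredient mixed into cover soil over seeded pans (pre-emergence soil incorporation), initial overhead irrigation equal to 0.64 cm rainfall, then subirrigation. Scored about 2-3 weeks after seeding; GR15 (crop) and GR85 (weed) rates in kg/ha, selectivity factor = crop GR15 / weed GR85.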

What does the source list for `CCOCN(C(=O)CCl)c1c(C)cccc1C(F)(F)F` [Example 1, N-(ethoxymethyl)-2'-trifluoromethyl-6'-methyl-2-chloroacetanilide]?
inhibition at 560 g/ha (cotton; P.P.I.): 13%; inhibition at 1120 g/ha (cotton; P.P.I.): 32%; inhibition at 2240 g/ha (cotton; P.P.I.): 37%; inhibition at 4480 g/ha (cotton; P.P.I.): 82%; inhibition at 560 g/ha (cotton; S.A.): 0%; inhibition at 1120 g/ha (cotton; S.A.): 13%; inhibition at 2240 g/ha (cotton; S.A.): 20%; inhibition at 4480 g/ha (cotton; S.A.): 25%; inhibition at 560 g/ha (peanuts; P.P.I.): 17%; inhibition at 1120 g/ha (peanuts; P.P.I.): 13%; inhibition at 2240 g/ha (peanuts; P.P.I.): 15%; inhibition at 4480 g/ha (peanuts; P.P.I.): 28%; inhibition at 560 g/ha (peanuts; S.A.): 0%; inhibition at 1120 g/ha (peanuts; S.A.): 0%; inhibition at 2240 g/ha (peanuts; S.A.): 8%; inhibition at 4480 g/ha (peanuts; S.A.): 22%; inhibition at 560 g/ha (pigweed; P.P.I.): 50%; inhibition at 1120 g/ha (pigweed; P.P.I.): 85%; inhibition at 2240 g/ha (pigweed; P.P.I.): 85%; inhibition at 4480 g/ha (pigweed; P.P.I.): 95%; inhibition at 560 g/ha (pigweed; S.A.): 0%; inhibition at 1120 g/ha (pigweed; S.A.): 0%; inhibition at 560 g/ha (wild proso millet; P.P.I.): 23%; inhibition at 1120 g/ha (wild proso millet; P.P.I.): 58%; inhibition at 2240 g/ha (wild proso millet; P.P.I.): 80%; inhibition at 4480 g/ha (wild proso millet; P.P.I.): 85%; inhibition at 560 g/ha (wild proso millet; S.A.): 63%; inhibition at 1120 g/ha (wild proso millet; S.A.): 83%; inhibition at 2240 g/ha (wild proso millet; S.A.): 95%; inhibition at 4480 g/ha (wild proso millet; S.A.): 97%; inhibition at 560 g/ha (rape; P.P.I.): 0%; inhibition at 1120 g/ha (rape; P.P.I.): 0%; inhibition at 2240 g/ha (rape; P.P.I.): 15%; inhibition at 4480 g/ha (rape; P.P.I.): 40%; inhibition at 560 g/ha (rape; S.A.): 0%; inhibition at 1120 g/ha (rape; S.A.): 0%; inhibition at 2240 g/ha (rape; S.A.): 5%; inhibition at 4480 g/ha (rape; S.A.): 33%; inhibition at 560 g/ha (Sorghum; P.P.I.): 32%; inhibition at 1120 g/ha (Sorghum; P.P.I.): 53%; inhibition at 2240 g/ha (Sorghum; P.P.I.): 92%; inhibition at 4480 g/ha (Sorghum; P.P.I.): 98%; inhibition at 560 g/ha (Sorghum; S.A.): 0%; inhibition at 1120 g/ha (Sorghum; S.A.): 3%; inhibition at 2240 g/ha (Sorghum; S.A.): 17%; inhibition at 4480 g/ha (Sorghum; S.A.): 77%; inhibition at 560 g/ha (soybeans [1]; P.P.I.): 5%; inhibition at 1120 g/ha (soybeans [1]; P.P.I.): 7%; inhibition at 2240 g/ha (soybeans [1]; P.P.I.): 20%; inhibition at 4480 g/ha (soybeans [1]; P.P.I.): 40%; inhibition at 560 g/ha (soybeans [1]; S.A.): 0%; inhibition at 1120 g/ha (soybeans [1]; S.A.): 5%; inhibition at 2240 g/ha (soybeans [1]; S.A.): 0%; inhibition at 4480 g/ha (soybeans [1]; S.A.): 13%; inhibition at 560 g/ha (Bush Bean; P.P.I.): 23%; inhibition at 1120 g/ha (Bush Bean; P.P.I.): 10%; inhibition at 2240 g/ha (Bush Bean; P.P.I.): 37%; inhibition at 4480 g/ha (Bush Bean; P.P.I.): 43%; inhibition at 560 g/ha (Bush Bean; S.A.): 0%; inhibition at 1120 g/ha (Bush Bean; S.A.): 8%; inhibition at 2240 g/ha (Bush Bean; S.A.): 20%; inhibition at 4480 g/ha (Bush Bean; S.A.): 32%; GR15 Rate (soybeans [2]): > 1.1 Kg/Ha; GR15 (soybeans [2]; soybeans/purple nutsedge): 1.1 kg/ha

Which results are given for `CC(C)OCN(C(=O)CCl)c1ccccc1C(F)(F)F` [Example 2, N--(isopropoxymethyl)-2'-trifluoromethyl-2-chloroacetanilide]?
inhibition at 560 g/ha (cotton; P.P.I.): 10%; inhibition at 1120 g/ha (cotton; P.P.I.): 23%; inhibition at 2240 g/ha (cotton; P.P.I.): 30%; inhibition at 4480 g/ha (cotton; P.P.I.): 75%; inhibition at 560 g/ha (cotton; S.A.): 0%; inhibition at 1120 g/ha (cotton; S.A.): 8%; inhibition at 2240 g/ha (cotton; S.A.): 8%; inhibition at 4480 g/ha (cotton; S.A.): 43%; inhibition at 560 g/ha (peanuts; P.P.I.): 0%; inhibition at 1120 g/ha (peanuts; P.P.I.): 5%; inhibition at 2240 g/ha (peanuts; P.P.I.): 17%; inhibition at 4480 g/ha (peanuts; P.P.I.): 45%; inhibition at 560 g/ha (peanuts; S.A.): 0%; inhibition at 1120 g/ha (peanuts; S.A.): 0%; inhibition at 2240 g/ha (peanuts; S.A.): 5%; inhibition at 4480 g/ha (peanuts; S.A.): 20%; inhibition at 560 g/ha (pigweed; P.P.I.): 33%; inhibition at 1120 g/ha (pigweed; P.P.I.): 85%; inhibition at 2240 g/ha (pigweed; P.P.I.): 85%; inhibition at 4480 g/ha (pigweed; P.P.I.): 88%; inhibition at 560 g/ha (pigweed; S.A.): 0%; inhibition at 1120 g/ha (pigweed; S.A.): 0%; inhibition at 560 g/ha (wild proso millet; P.P.I.): 35%; inhibition at 1120 g/ha (wild proso millet; P.P.I.): 48%; inhibition at 2240 g/ha (wild proso millet; P.P.I.): 68%; inhibition at 4480 g/ha (wild proso millet; P.P.I.): 87%; inhibition at 560 g/ha (wild proso millet; S.A.): 27%; inhibition at 1120 g/ha (wild proso millet; S.A.): 63%; inhibition at 2240 g/ha (wild proso millet; S.A.): 75%; inhibition at 4480 g/ha (wild proso millet; S.A.): 93%; inhibition at 560 g/ha (rape; P.P.I.): 0%; inhibition at 1120 g/ha (rape; P.P.I.): 15%; inhibition at 2240 g/ha (rape; P.P.I.): 27%; inhibition at 4480 g/ha (rape; P.P.I.): 35%; inhibition at 560 g/ha (rape; S.A.): 0%; inhibition at 1120 g/ha (rape; S.A.): 5%; inhibition at 2240 g/ha (rape; S.A.): 0%; inhibition at 4480 g/ha (rape; S.A.): 30%; inhibition at 560 g/ha (Sorghum; P.P.I.): 7%; inhibition at 1120 g/ha (Sorghum; P.P.I.): 27%; inhibition at 2240 g/ha (Sorghum; P.P.I.): 38%; inhibition at 4480 g/ha (Sorghum; P.P.I.): 90%; inhibition at 560 g/ha (Sorghum; S.A.): 0%; inhibition at 1120 g/ha (Sorghum; S.A.): 0%; inhibition at 2240 g/ha (Sorghum; S.A.): 5%; inhibition at 4480 g/ha (Sorghum; S.A.): 33%; inhibition at 560 g/ha (soybeans [1]; P.P.I.): 3%; inhibition at 1120 g/ha (soybeans [1]; P.P.I.): 0%; inhibition at 2240 g/ha (soybeans [1]; P.P.I.): 13%; inhibition at 4480 g/ha (soybeans [1]; P.P.I.): 28%; inhibition at 560 g/ha (soybeans [1]; S.A.): 0%; inhibition at 1120 g/ha (soybeans [1]; S.A.): 0%; inhibition at 2240 g/ha (soybeans [1]; S.A.): 3%; inhibition at 4480 g/ha (soybeans [1]; S.A.): 10%; inhibition at 560 g/ha (Bush Bean; P.P.I.): 5%; inhibition at 1120 g/ha (Bush Bean; P.P.I.): 13%; inhibition at 2240 g/ha (Bush Bean; P.P.I.): 22%; inhibition at 4480 g/ha (Bush Bean; P.P.I.): 63%; inhibition at 560 g/ha (Bush Bean; S.A.): 0%; inhibition at 1120 g/ha (Bush Bean; S.A.): 0%; inhibition at 2240 g/ha (Bush Bean; S.A.): 5%; inhibition at 4480 g/ha (Bush Bean; S.A.): 33%; GR15 Rate (soybeans [2]): > 1.1 Kg/Ha

From patent publication US4731109A, “Herbicidal 2-haloacetanilides” (Monsanto Company, priority 1982, dated 1988)
